Test results taken from patent publication US10174013B2, “Benzimidazole derivatives as kinase inhibitors” (SELVITA S.A., priority 2012, dated 2019).
Structures can show the parent of a compound that is named as a salt. Where two headings read alike, the source gives them in different places.

Columns and labels:
[1] = biological target: Pim-1 (Homo sapiens (Human), UniProt P11309); test: ADP-Glo Kinase Assay, Pim-1; type: biochemical; conditions: 1 μM compound; for inhibition at 1 µM: read-out: Pim-1 % INH (1 μM)
Pim-1, sequence (P11309 whole entry): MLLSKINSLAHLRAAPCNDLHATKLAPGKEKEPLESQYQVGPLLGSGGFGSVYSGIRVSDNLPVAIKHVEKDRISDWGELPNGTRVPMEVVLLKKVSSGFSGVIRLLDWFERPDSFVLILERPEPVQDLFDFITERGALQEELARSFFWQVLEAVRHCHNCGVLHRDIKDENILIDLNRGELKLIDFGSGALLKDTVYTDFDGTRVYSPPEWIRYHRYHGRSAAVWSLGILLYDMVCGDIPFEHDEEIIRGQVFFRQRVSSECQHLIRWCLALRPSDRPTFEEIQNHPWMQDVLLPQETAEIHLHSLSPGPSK
Summary of the method: (§1)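 Compounds were diluted in assay buffer to 1000 nM and incubated with kinase, substrate and ATP at apparent Km. Remaining ATP was depleted, ADP converted to ATP and detected by luciferase; percent inhibition came from normalized luminescence.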

[2] = biological target: Pim-2 (Homo sapiens (Human), UniProt Q9P1W9); test: ADP-Glo Kinase Assay, Pim-2; type: biochemical; conditions: 1 μM compound; for inhibition at 1 µM: read-out: Pim-2 % INH (1 μM)
Pim-2, sequence (Q9P1W9 whole entry): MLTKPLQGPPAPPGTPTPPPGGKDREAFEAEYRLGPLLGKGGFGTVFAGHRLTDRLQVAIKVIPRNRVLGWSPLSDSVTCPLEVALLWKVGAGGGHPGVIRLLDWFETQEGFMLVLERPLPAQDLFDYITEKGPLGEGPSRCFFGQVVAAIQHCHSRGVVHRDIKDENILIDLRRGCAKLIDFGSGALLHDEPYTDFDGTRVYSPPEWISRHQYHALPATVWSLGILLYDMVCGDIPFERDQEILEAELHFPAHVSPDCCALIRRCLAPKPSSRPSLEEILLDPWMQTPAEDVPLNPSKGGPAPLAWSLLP
Summary of the method: as §1

[3] = biological target: Pim-3 (Homo sapiens (Human), UniProt Q86V86); test: ADP-Glo Kinase Assay, Pim-3; type: biochemical; conditions: 1 μM compound; for inhibition at 1 µM: read-out: Pim-3 % INH (1 μM)
Summary of the method: as §1

[4] = biological target: FLT3wt (Homo sapiens (Human), UniProt P36888); test: ADP-Glo Kinase Assay, Flt3 wt; type: biochemical; conditions: 1 μM compound; for inhibition at 1 µM: read-out: Flt3wt % INH (1 μM)
FLT3wt, sequence (P36888 27-993): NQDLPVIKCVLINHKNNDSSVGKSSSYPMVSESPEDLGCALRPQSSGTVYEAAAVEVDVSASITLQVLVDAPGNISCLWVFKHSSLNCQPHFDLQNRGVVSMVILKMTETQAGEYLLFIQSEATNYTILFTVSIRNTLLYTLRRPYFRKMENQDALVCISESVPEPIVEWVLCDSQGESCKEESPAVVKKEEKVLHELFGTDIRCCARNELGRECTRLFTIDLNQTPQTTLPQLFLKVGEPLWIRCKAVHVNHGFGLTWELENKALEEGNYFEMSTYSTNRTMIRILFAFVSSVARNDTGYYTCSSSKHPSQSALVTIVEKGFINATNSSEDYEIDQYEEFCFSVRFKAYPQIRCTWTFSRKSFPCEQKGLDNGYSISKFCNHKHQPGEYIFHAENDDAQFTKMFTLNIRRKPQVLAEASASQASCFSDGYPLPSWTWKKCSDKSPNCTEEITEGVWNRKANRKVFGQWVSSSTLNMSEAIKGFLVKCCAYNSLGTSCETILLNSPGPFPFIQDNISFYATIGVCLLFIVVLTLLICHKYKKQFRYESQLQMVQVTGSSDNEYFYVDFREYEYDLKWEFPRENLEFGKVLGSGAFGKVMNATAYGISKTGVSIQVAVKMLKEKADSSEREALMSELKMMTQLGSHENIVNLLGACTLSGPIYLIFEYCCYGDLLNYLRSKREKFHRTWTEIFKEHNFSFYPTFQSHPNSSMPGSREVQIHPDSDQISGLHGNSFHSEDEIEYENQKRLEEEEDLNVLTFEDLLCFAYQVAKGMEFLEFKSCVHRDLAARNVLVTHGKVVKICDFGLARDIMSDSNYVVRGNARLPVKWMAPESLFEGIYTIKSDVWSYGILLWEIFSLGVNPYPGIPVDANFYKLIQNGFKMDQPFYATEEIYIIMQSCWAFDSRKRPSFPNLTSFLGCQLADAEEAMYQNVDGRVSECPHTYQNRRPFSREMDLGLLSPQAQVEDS
Summary of the method: as §1

[5] = biological target: CDK2/E (Homo sapiens (Human), UniProt P24941); test: ADP-Glo Kinase Assay, CDK2/E; type: biochemical; conditions: 1 μM compound; for inhibition at 1 µM: read-out: CDK2/E % INH (1 μM)
Summary of the method: as §1

[6] = biological target: DYRK1 (Homo sapiens (Human), UniProt Q13627); test: ADP-Glo Kinase Assay, DYRK1; type: biochemical; conditions: 1 μM compound; for inhibition at 1 µM: read-out: DYRK1A % INH (1 μM)
Summary of the method: as §1

[7] = tested on: MV4-11 cells; test: Growth inhibition, MTS assay, MV4-11; type: cell-based, Human; conditions: MTS cell viability, read-out: MV4-11 ED50
[8] = tested on: HEL92 cells; test: Growth inhibition, MTS assay, HEL92; type: cell-based, Human; conditions: MTS cell viability, read-out: HEL92 ED50
[9] = tested on: HepG2 cells; test: Growth inhibition, MTS assay, HepG2; type: cell-based, Human; conditions: MTS cell viability, read-out: HepG2 ED50
[10] = tested on: MOLM13 cells; test: Growth inhibition, MTS assay, MOLM13; type: cell-based, Human; conditions: 72 hours, MTS cell viability, read-out: MOLM 13 ED50
Text: (§2) The following cell lines, were obtained and used in tests as outlined below: • Human myelomonocytic, biphenotypic leukemia MV4-11 cells (harboring a Flt3-ITD mutation); • Human Acute Myeloid Leukemia MOLM16 cells; • Human Acute Myeloid Leukemia MOLM13 cells (harboring a Flt3-ITD mutation); • Human Myeloid Leukemia KG-1 cells; • Human erythroleukemia HEL92 cells; • Human mantle cell lymphoma Jeko-1 cells; • Human hepatocellular carcinoma HepG2 cells; and • Human colon adenocarcinoma SW-480 cells.
(§3) The assays were carried out according to the following protocol, which is described as an example for the MV4-11 cells:
(§4) Ten thousand MV4-11 cells were inoculated into each well of a 96-well microplate (manufactured by Corning Corp.) using Iscove's MDM medium (culture medium) containing 10% fetal calf serum (FCS). The same day, a dimethyl sulfoxide (DMSO) solution of each test compound prepared in a concentration of 10 mmol/L was further diluted with DMSO to the desired concentrations (0.1, 0.5, 1, 2.5, 5 and 10 micromol/L), and the diluted solution was added to each well. The individual wells were further cultured in 5% carbon dioxide at 37° C. for 72 hours. […] Briefly, 10 μl MTS (3-(4,5-Dimethyl-2-thiazolyl)-5-(carboxymethoxyphenyl)-2-(4-sulfophenyl)-2H-tetrazolium was added to each well, and culturing was performed in 5% carbon dioxide at 37° C. for 2 hours. After this incubation and using a microplate spectrophotometer (Synergy 2 multi-mode microplate reader (BioTek)), the absorbance of each well was measured at 490 nm. The value for cells not incubated with a test compound was designated as 100%. By comparing these values with the absorbance difference obtained at the well in which each test compound was added, the cell viability (% viability) after treatment with the test compound was calculated.

[11] = tested on: Jeko-1 cells; test: Growth inhibition, MTS assay, Jeko-1; type: cell-based, Human; conditions: 72 hours, MTS cell viability, read-out: Jeko-1 ED50
Text: as §2, §3, §4

[12] = tested on: SW-480 cells; test: Growth inhibition, MTS assay, SW-480; type: cell-based, Human; conditions: 72 hours, MTS cell viability, read-out: SW-480 ED50
[13] = biological target: CYP3A4 (Homo sapiens (Human), UniProt P08684); test: Cytochrome P450 inhibition, fluorescence, CYP3A4; type: in vitro ADME; conditions: recombinant CYP3A4, fluorescence detection; read-out: CYP inhibition (CYP 3A4 screening, IC50 class)
CYP3A4, sequence (P08684 whole entry, canonical isoform): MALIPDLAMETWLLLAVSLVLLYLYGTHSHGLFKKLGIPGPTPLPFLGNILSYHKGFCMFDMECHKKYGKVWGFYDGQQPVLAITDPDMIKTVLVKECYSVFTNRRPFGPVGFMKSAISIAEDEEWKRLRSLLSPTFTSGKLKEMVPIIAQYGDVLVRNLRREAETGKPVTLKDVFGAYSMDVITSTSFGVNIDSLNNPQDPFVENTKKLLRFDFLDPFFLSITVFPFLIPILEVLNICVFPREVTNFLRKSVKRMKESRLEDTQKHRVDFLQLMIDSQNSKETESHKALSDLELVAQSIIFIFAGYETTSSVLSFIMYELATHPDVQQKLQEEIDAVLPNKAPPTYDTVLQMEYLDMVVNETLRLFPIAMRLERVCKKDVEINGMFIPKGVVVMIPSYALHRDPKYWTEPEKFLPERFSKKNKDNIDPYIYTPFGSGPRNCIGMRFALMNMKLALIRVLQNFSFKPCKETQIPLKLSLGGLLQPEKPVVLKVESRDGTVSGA
Procedure: The assays for cytochrome P450 inhibition facilitate the identification of drug candidates with lower potential for drug-drug interactions (weak enzymes inhibitors). In vitro experiments were conducted to determine whether a drug inhibits a specific CYP enzyme. The experiments comprised the incubation of the drug with probe substrates for the CYP enzymes, wherein the following recombinant cytochrome P450 isoforms were employed: CYP1A2, CYP2C8, CYP2C9, CYP2C19, CYP2D6 and CYP3A4, together with various probe substrates enabling fluorescence detection. The protocol uses a single substrate concentration near the apparent Km and multiple compound concentrations.
The assay was performed in 96-well microtiter plates. The row designations were A through H and the column designations were 1 through 12. […] Each compound (see Table 6 for tested compounds) was added to the wells in column 1 and serially diluted to the wells in column 8. Wells 9 and 10 were control wells which contained no test compound (therefore no inhibition-full signal is detected.) The wells in columns 11 and 12 were blanks, where STOP solution was added prior to the addition of the enzyme/substrate mix to the NADPH regenerating system (the only signal present in these wells is background noise.) The assay was conducted in a final volume of 0.2 ml per well.
The stock solutions of the tested compounds were prepared in DMSO at 10 mM concentration. […] After mixing the compounds with solution containing NADPH-cofactors, the mixed plate was preincubated in a 37° C. incubator for at least 10 minutes; next, the fluorescence of compounds using recommended excitation/emission filters was measured in order to eliminate false results originating from autofluorescence of the compounds. In the following step, the enzyme/substrate mix was added to columns 1 through 10 and the plates were incubated at 37° C. for specific times depending on the CYP tested (incubation times ranged from 30 to 45 minutes). After adding STOP SOLUTION to all wells and respective enzyme/substrate mix to the wells in columns 11 and 12, the plate was scanned with a fluorescent plate scanner. The excitation/emission filters used for the specific assays are described in the GenTest Screening Kit instruction manual.

[14] = biological target: hERG potassium channel (Homo sapiens (Human), UniProt Q12809); test: hERG automated patch clamp assay (QPatch HT)
hERG potassium channel, sequence (Q12809 whole entry): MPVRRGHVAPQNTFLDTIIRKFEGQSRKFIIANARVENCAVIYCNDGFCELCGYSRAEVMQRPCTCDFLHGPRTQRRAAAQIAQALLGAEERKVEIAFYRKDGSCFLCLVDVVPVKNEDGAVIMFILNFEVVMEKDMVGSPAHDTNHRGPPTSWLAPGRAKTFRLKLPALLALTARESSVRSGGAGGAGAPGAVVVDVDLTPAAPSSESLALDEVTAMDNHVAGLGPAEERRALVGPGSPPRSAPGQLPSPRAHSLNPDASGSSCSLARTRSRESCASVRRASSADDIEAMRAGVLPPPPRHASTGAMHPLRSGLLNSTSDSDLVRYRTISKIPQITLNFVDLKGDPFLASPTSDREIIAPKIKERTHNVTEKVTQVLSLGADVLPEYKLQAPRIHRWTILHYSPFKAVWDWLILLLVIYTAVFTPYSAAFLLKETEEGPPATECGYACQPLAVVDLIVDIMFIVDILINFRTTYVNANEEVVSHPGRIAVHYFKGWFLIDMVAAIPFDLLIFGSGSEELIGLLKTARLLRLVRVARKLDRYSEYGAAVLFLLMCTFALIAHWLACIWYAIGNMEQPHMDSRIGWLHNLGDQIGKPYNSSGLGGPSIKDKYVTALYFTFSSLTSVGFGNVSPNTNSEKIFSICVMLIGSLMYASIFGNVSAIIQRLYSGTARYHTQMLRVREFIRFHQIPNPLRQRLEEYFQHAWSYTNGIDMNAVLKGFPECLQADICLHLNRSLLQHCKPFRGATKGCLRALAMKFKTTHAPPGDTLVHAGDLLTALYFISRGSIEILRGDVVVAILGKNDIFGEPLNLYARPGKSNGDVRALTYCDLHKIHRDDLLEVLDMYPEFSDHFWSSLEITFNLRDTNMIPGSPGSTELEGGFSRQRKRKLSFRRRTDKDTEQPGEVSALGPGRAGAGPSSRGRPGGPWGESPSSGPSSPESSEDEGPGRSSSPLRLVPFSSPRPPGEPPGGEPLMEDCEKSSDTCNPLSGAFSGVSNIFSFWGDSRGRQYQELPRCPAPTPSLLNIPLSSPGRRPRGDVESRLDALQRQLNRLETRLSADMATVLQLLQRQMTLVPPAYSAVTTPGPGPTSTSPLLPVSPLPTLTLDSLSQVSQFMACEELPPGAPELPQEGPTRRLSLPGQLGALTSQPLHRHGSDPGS
Procedure: The hERG (human ether-A-go-go-related gene) channel corresponds to an important anti-target for potential new drugs since its inhibition may lead to sudden death. In order to establish whether the compounds of the present invention act on hERG, the following experiment was carried out.
The in vitro effects of the compounds indicated in Table 5 on the hERG potassium channel current (a surrogate for Iκr, the rapidly activating, delayed rectifier cardiac potassium current) expressed in mammalian cells were evaluated at room temperature using the QPatch HT® (Sophion Bioscience A/S, Denmark), an automatic parallel patch clamp system. Each compound indicated in Table 5 was evaluated at 0.1, 1, 3, 10 and 30 μM with each concentration tested in a minimum of two cells (n≥2). The duration of exposure to each compound concentration was 3 minutes.

[15] = tested on: MOLM16 cells; test: Growth inhibition, MTS assay, MOLM16; type: cell-based, Human; conditions: Homo sapiens, MOLM16, 72 h, MTS cell viability, read-out: MOLM 16 ED50
Text: as §2, §3, §4

Compound	Pim-1 % INH (1 μM) [1] [%]	Pim-2 % INH (1 μM) [2] [%]	Pim-3 % INH (1 μM) [3] [%]	Flt3wt % INH (1 μM) [4] [%]	CDK2/E % INH (1 μM) [5] [%]	DYRK1A % INH (1 μM) [6] [%]	IC50 ([7]; 72 hours) [µM]	IC50 ([9]; 72 hours) [µM]	inhibition at 1 µM [1] [%]	inhibition at 1 µM [2] [%]	inhibition at 1 µM [3] [%]	inhibition at 1 µM [4] [%]	inhibition at 1 µM [5] [%]	inhibition at 1 µM [6] [%]	IC50 ([7]; Homo sapiens, MV4-11, 72 h) [µM]	IC50 ([9]; Homo sapiens, HepG2, 72 h) [µM]	IC50 ([12]; Homo sapiens, SW480) [µM]	IC50 [13] [µM]	IC50 ([8]; Homo sapiens, 72 h) [µM]	also measured
CC(C)n1c(N2CCNCC2)nc2c(C#N)c(Br)c(Br)cc21 [Example 1BL]									> 95	33	81	54	7	75	0.4	1.4			2.4	IC50 ([10]; Homo sapiens, MOLM-13): 1 µM
CCn1c(NC2CCCNCC2)nc2c([N+](=O)[O-])c(Br)c(Br)cc21 (stereo not shown) [Example 1Q]									86	22	> 95	< 5	6	11	6.9	1.1	5.3	3.3 to 10	8.2	IC50 ([11]; Homo sapiens, JeKo-1): 5.4 µM
CCn1c(N[C@H]2CCCNC2)nc2c([N+](=O)[O-])c(Br)c(Br)cc21 [Example 1AA]	>95	53	>95	11	<5	40	1.3	2.1										1.1 to 3.3		IC50 ([8]; 72 hours): 4.6 µM; IC50 [11]: 1.8 µM; IC50 [12]: 5.5 µM; IC50 [14]: 2.27 µM
CCn1c(NC2CCNC2)nc2c([N+](=O)[O-])c(Br)c(Br)cc21 (stereo not shown) [Example 1AF]									> 95	23	71	< 5	< 5	47	1.2	1.8	5.2	> 10	8.5	IC50 ([11]; Homo sapiens, JeKo-1): 2.3 µM
CC(C)n1c(N2CC[C@@H](N)C2)nc2c([N+](=O)[O-])c(Br)c(Br)cc21 [Example 1AY]	>95	89	>95	60		87	0.5	1.5												IC50 ([8]; 72 hours): 1.9 µM; IC50 [10]: 0.9 µM

Now from value to molecule, other results behind:

Pim-1 % INH (1 μM) [1] [%]	Pim-2 % INH (1 μM) [2] [%]	Pim-3 % INH (1 μM) [3] [%]	Flt3wt % INH (1 μM) [4] [%]	CDK2/E % INH (1 μM) [5] [%]	DYRK1A % INH (1 μM) [6] [%]	IC50 ([7]; 72 hours) [µM]	IC50 ([9]; 72 hours) [µM]	inhibition at 1 µM [1] [%]	inhibition at 1 µM [2] [%]	inhibition at 1 µM [3] [%]	inhibition at 1 µM [4] [%]	inhibition at 1 µM [5] [%]	inhibition at 1 µM [6] [%]	IC50 ([7]; Homo sapiens, MV4-11, 72 h) [µM]	IC50 ([9]; Homo sapiens, HepG2, 72 h) [µM]	IC50 ([12]; Homo sapiens, SW480) [µM]	IC50 [13] [µM]	Compound	IC50 ([8]; Homo sapiens, 72 h) [µM]	also measured
>95	12	65	33	29	61	0.7	2.0											COCCn1c(N2CCNCC2)nc2c([N+](=O)[O-])c(Br)c(Br)cc21 [Example 1BB]		IC50 ([8]; 72 hours): 5.4 µM; IC50 [10]: 3.0 µM
								> 95	31	76	< 5	< 5	17	3.2	5.1		3.3 to 10	COC(CN)CNc1nc2c([N+](=O)[O-])c(Br)c(Br)cc2n1C(C)C (stereo not shown) [Example 22AB, N-(3-amino-2-methoxypropyl)-5,6-dibromo-4-nitro-1-(propan-2-yl)-1H-1,3-benzodiazol-2-amine]		IC50 [14]: 2.02 µM
>95	63	92	20	<5	48	0.8	5.2										> 10	CC(C)n1c(NC2CCNC2)nc2c(C#N)c(Br)c(Br)cc21 (stereo not shown) [Example 1BK]		IC50 [15]: 0.06 µM
								> 95	56	> 95	< 5	< 5	62	2	1.5	1.4	3.3 to 10	NCCCNc1nc2c([N+](=O)[O-])c(Br)c(Br)cc2n1C1CCCC1 [Example 2H, N-(3-aminopropyl)-5,6-dibromo-1-cyclopentyl-4-nitro-1H-1,3-benzodiazol-2-amine hydrochloride]	6.8	
								> 95	41	57	< 5	21	16	5.9	6.2	6.2	> 10	NCCCNc1nc2c([N+](=O)[O-])c(Br)c(Br)cc2[nH]1 [Example 1D]	8.2	
			<5	<5				79	16	46			14	3.2			3.3 to 10	CC(C)n1c(NC2CCC(N)CC2)nc2c([N+](=O)[O-])c(Br)c(Br)cc21 (stereo not shown) [Example 1BC]	7.9	IC50 ([11]; Homo sapiens, JeKo-1): 3 µM
